This passage reports inhibition results from PubChem BioAssay AID2368 (The Scripps Research Institute Molecular Screening Center, 2010).

A word on the inhibition: it is the share of the control response that was lost under treatment.

Bounds are passed on as bounds.

The target of this experiment is Protein phosphatase methylesterase 1 (Homo sapiens) (UniProt Q9Y570). The experiment is described as follows: PME-1 activity inhibition following gel filtration – gel-based ABPP, late-stage follow-up (AID 2368). The settings on record: PME-1 labeling, stronger effect = higher value, concentration not given here. A general note: Size exclusion chromatography separates by hydrodynamic size, large species first.
Sequence of Protein phosphatase methylesterase 1 (Homo sapiens) (Q9Y570 whole entry, looked up): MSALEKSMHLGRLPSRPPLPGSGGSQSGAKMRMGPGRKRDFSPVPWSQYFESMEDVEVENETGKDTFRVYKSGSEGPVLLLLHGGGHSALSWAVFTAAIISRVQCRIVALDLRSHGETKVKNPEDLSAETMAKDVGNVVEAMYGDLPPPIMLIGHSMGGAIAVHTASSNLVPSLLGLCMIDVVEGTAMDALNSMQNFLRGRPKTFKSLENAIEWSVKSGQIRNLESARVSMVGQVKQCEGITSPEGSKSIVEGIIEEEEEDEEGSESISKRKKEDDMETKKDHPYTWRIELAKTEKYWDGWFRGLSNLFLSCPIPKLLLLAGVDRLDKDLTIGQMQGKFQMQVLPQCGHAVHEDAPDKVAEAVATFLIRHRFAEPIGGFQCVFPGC

Turning to `N#C/C(=C\c1cccn1S(=O)(=O)c1cccc(C#N)c1)S(=O)(=O)c1ccc(F)cc1`, the inhibition is more than 50%.

Take `N#C/C(=C\c1cccn1S(=O)(=O)c1cccc([N+](=O)[O-])c1)S(=O)(=O)c1ccc(F)cc1`: the inhibition was more than 50%.
